Data: BigSolDB 2.1

Cc1ccc(Nc2nccc(N(C)c3ccc4c(C)n(C)nc4c3)n2)cc1S(N)(=O)=O
solubility (mole fraction)
Details | 288.15 K | 293.15 K | 298.15 K | 303.15 K | 308.15 K | 313.15 K | 318.15 K | 323.15 K | 328.15 K
in ethanol | 7.97e-06 | 1.01e-05 | 1.27e-05 | 1.61e-05 | 1.96e-05 | 2.36e-05 | 2.85e-05 | 3.41e-05 | 4.04e-05
in ethyl acetate | 6.17e-06 | 8.06e-06 | 1.04e-05 | 1.31e-05 | 1.63e-05 | 2e-05 | 2.48e-05 | 3.06e-05 | 3.7e-05
in isopropanol | 9.43e-06 | 1.19e-05 | 1.49e-05 | 1.86e-05 | 2.25e-05 | 2.71e-05 | 3.25e-05 | 3.9e-05 | 4.69e-05
